Legend:
Assay type in all cases: in vivo
[1] = tested on: barnyardgrass (Echinochloa crus-galli); test: Test A pre-/postemergence: barnyardgrass
In short: (§1)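 Seeds were sown in loam/sand blend and sprayed preemergence (directed soil spray) and, simultaneously, postemergence at 2–10 cm, one- to two-leaf stage, using compounds in non-phytotoxic solvent with surfactant. After ~10 days in greenhouse, injury was rated visually versus untreated controls, 0 (no effect) to 100 (complete control).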

[2] = tested on: crabgrass, large (large crabgrass, Digitaria sanguinalis); test: Test A pre-/postemergence: crabgrass, large
In short: as §1

[3] = tested on: foxtail, giant (giant foxtail, Setaria faberii); test: Test A pre-/postemergence: foxtail, giant
In short: as §1

[4] = tested on: morningglory (Ipomoea spp.); test: Test A pre-/postemergence: morningglory
In short: as §1

[5] = tested on: pigweed (Amaranthus retroflexus); test: Test A pre-/postemergence: pigweed
In short: as §1

[6] = tested on: velvetleaf (Abutilon theophrasti); test: Test A pre-/postemergence: velvetleaf
In short: as §1

[7] = tested on: wheat (Triticum aestivum); test: Test A pre-/postemergence: wheat
In short: as §1

corn (Zea mays) = test: Test A pre-/postemergence: corn
In short: as §1

rice (Oryza sativa) = test: Test B flooded paddy: rice; settings: Flood; 125 g ai/ha; applied to paddy water at 2-leaf stage; visually evaluated after 13 to 15 days
In short: (§2)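 Two-leaf-stage plants, pots flooded (3 cm above soil) and treated through the water, which stayed at that depth. After 13–15 days in greenhouse conditions, visual assessment versus controls: 0 is no effect, 100 complete control, dash means no result.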

[8] = tested on: sedge, umbrella (small-flower umbrella sedge Cyperus difformis); test: Test B flooded paddy: sedge, umbrella; settings: Flood; 125 g ai/ha; applied to paddy water at 2-leaf stage; visually evaluated after 13 to 15 days
In short: as §2

[9] = tested on: ducksalad (Heteranthera limosa); test: Test B flooded paddy: ducksalad; settings: Flood; 125 g ai/ha; applied to paddy water at 2-leaf stage; visually evaluated after 13 to 15 days
In short: as §2

[10] = tested on: barnyardgrass (Echinochloa crus-galli); test: Test B flooded paddy: barnyardgrass; settings: Flood; 125 g ai/ha; applied to paddy water at 2-leaf stage; visually evaluated after 13 to 15 days
In short: as §2

[11] = Postemergence, 125 g ai/ha, 0 to 100 scale, 0 is no effect, 100 is complete control
[12] = Postemergence, 500 g ai/ha, visual rating on 0 to 100 scale (0 no effect, 100 complete control), approximately ten days
[13] = Preemergence, 125 g ai/ha, 0 to 100 scale where 0 is no effect and 100 is complete control
[14] = Preemergence, 500 g ai/ha, 0 to 100 scale (0 no effect, 100 complete control)

COCc1nn(-c2ccc(F)cc2)nc1Oc1ccnc(C(F)(F)F)c1 [Compound 161]
100: Plant response rating, Crabgrass, Large [2, 13] | Plant response rating, Crabgrass, Large [2, 14] | Plant response rating, Foxtail, Giant [3, 13] | Plant response rating, Foxtail, Giant [3, 14] | Plant response rating, Pigweed [5, 11] | Pigweed plant response rating [5, 12] | Plant response rating, Pigweed [5, 13] | Plant response rating, Pigweed [5, 14]
20: Plant response rating, Barnyardgrass [1, 13] | Plant response rating, Rice (0 to 100 scale, 0 is no effect, 100 is complete control) (rice (Oryza sativa))
60: Plant response rating, Barnyardgrass [1, 14] | Plant response rating, Foxtail, Giant [3, 11]
0: Plant response rating, Velvetleaf [6, 13] | Plant response rating, Wheat [7, 13] | Plant response rating, Ducksalad (0 to 100 scale, 0 is no effect, 100 is complete control) [9] | Plant response rating, Barnyardgrass (0 to 100 scale, 0 is no effect, 100 is complete control) [10]
50: Morningglory plant response rating [4, 12] | Plant response rating, Velvetleaf [6, 14]
70: Barnyardgrass plant response rating [1, 12] | Plant response rating, Crabgrass, Large [2, 11]
10: Plant response rating, Morningglory [4, 13] | Plant response rating, Morningglory [4, 14] | Plant response rating, Wheat [7, 11] | Plant response rating, Wheat [7, 14] | Plant response rating, Corn (corn (Zea mays); [11]) | Plant response rating, Corn (corn (Zea mays); [13]) | Plant response rating, Corn (corn (Zea mays); [14])
90: Crabgrass, Large plant response rating [2, 12] | Foxtail, Giant plant response rating [3, 12]
80: Velvetleaf plant response rating [6, 12] | Plant response rating, Sedge, Umbrella (0 to 100 scale, 0 is no effect, 100 is complete control) [8]
30: Plant response rating, Barnyardgrass [1, 11] | Plant response rating, Morningglory [4, 11] | Wheat plant response rating [7, 12] | Corn plant response rating (corn (Zea mays); [12])
40: Plant response rating, Velvetleaf [6, 11]
